Reference: patent US20240150270A1, “METHOD FOR SELECTIVE RECOVERY OF LIPOPHILIC COMPOUNDS” (priority 2021, published 2024)

Tests used:
[1] = Dissolution of CBD in ethanol:water mixtures; assay type: physicochemical
Experimental: The protocol of Example 9 was followed with the 60 mg initially dissolved in ethanol only. […] The remaining five portions were diluted to an ethanol to water ratio of 7:3, 6:4, 5:5, 4:6 or 3:7. The portions were then filtered to retrieve the cross-linked polymer.
At 50:50 EtOH:H2O, CBD dissolves provided that EtOH is added first then H2O. At 45:56 EtOH:H2O, the 2 mg/mL CBD solution is cloudy. […] Slowly adding H2O to the CBD, EtOH, polymer mixture results in very high capture of 98% at a 3:7 EtOH:H2O.
The portions were filtered by pipette filtration to retrieve the cross-linked polymer. The cross-linked polymer was then flushed with DMSO. […] Ten percent of the CBD is not in solution when CBD in 3:7 EtOH:H2O is used. The calculated cyclodextrin capacity within the polymer is 8:1 polymer:CBD.

[2] = Capture and release of target molecule by cross-linked polymer (HDI-linked cyclodextrin), slurry protocol; assay type: physicochemical; conditions: Example 9; 2 mg/mL in 1:1 ethanol:water, 10:1
Experimental: A mass of CBD was dissolved in ethanol to form a stock solution. A reference sample of the stock solution was diluted with ethanol to obtain a target CBD or other target molecule concentration for a reference measurement. A reaction sample was taken from the remaining stock solution. A cross-linked polysaccharide was combined with the reaction sample in a ratio relative to the CBD or other target molecule concentration present in the reaction sample (by mass) as specified in Examples. The cross-linked polymer is HDI-linked cyclodextrin prepared with a ratio of 8:1 HDI to cyclodextrin.
Water is combined with the reaction sample until the reaction sample reaches a target CBD or other target molecule concentration, and a target ethanol to water ratio. The reaction mixture including the water is filtered at a cutoff size of between 75 μm to 4,000 μm aperture size, or exposed to a magnetic field with a neodymium magnet through the wall of a flask, to retrieve the cross-linked polymer bound with CBD or other target molecule concentration. Once retrieved, the cross-linked polymer is flushed with a dissociation fluid for dissolving the target molecule.
Ten milligrams of CBD were dissolved in a 10 mL mixture of 1:1 ethanol to water to produce a reaction mixture with a CBD concentration of 1 mg/mL. A 1 mL aliquot was then taken from the reaction mixture as a reference sample (t=0). […]

With C=C(C)[C@@H]1CCC(C)=C[C@H]1c1c(O)cc(CCCCC)cc1O [CBD, cannabidiol] the “dissolution of CBD” value ([1]; 6 mg/mL in 1:1 EtOH:H2O, sonication and heating) was “did not dissolve”, the “dissolution of CBD” value ([1]; 40:60 EtOH:H2O, 2 mg/mL) was “not fully dissolved” and the “dissolution of CBD” value ([1]; 45:56 EtOH:H2O, 2 mg/mL) was “cloudy”. The “dissolution of CBD” value ([1]; 50:50 EtOH:H2O, 2 mg/mL, EtOH added first then H2O) was “dissolves”, the “CBD not in solution” value ([1]; CBD in 3:7 EtOH:H2O, Example 17) was “Ten” and the “time to capture plateau” value [2] was “about 5 minutes”.
